# From patent EP0800516B1, “FIBRINOGEN RECEPTOR ANTAGONISTS HAVING SUBSTITUTED (b)-AMINO ACID RESIDUES AND PHARMACEUTICAL COMPOSITIONS COMPRISING THE SAME” (Nippon Steel Corporation, priority 1994, dated 1996)
# System: Human Platelet Aggregation
# Experiment: in vitro human platelet aggregation using PRP (collagen-induced, light transmittance)
# Type: cell-based
# Details: aggregation induced with collagen (final concentration: 5 µ g/ml), 37°C
# Source text: (Measurement of in vitro Human Platelet Aggregation using PRP)
# Healthy male volunteers who had not taken any medicines for at least two weeks were selected as subjects. Blood was collected from the forearm vein of each subject on an empty stomach using a #19 needle and a plastic syringe preliminarily charged with 1/10 volume of a 3.8% sodium citrate solution. Immediately after the blood collection, the syringe was shaken gently to mix the blood with the sodium citrate solution. The mixed blood was centrifuged (1100 rpm, 250 g) at room temperature for 15 minutes and the rotation was stopped without applying the brake. Then, the supernatant was collected with a Komagome type pipette to obtain platelet-rich plasma (PRP). The PRP was stored at room temperature. The blood remaining after centrifuging was further centrifuged (3500 rpm, 1500 g) at room temperature for 15 minutes and the rotation was stopped without applying the brake. The supernatant was collected to obtain platelet-poor plasma (PPP). After the preparation of the PRP, the number of platelets was counted and only samples containing more than 2 x 10^8 of platelets per milliliter were subjected to the following experiments.
# Platelet aggregation was measured using an 8-channel platelet aggregation measuring instrument (Hematracer, Nikoh Bioscience, Tokyo, Japan) on the basis of the change in light transmittance through the PRP. First, the PPP and PRP (each 200µl) were placed in glass cuvettes and incubated at 37°C . Thereafter, the transmittance was measured. The transmittance of the PPP was determined as 100% and that of the PRP as 0%. Then, 10µl of physiological saline or a sample-containing physiological saline was added to the PRP and incubated at 37°C for one minute. A collagen solution (10 µ l) at a concentration of […] was added (final concentration: 5 µ g/ml) to induce aggregation and thereafter the transmittance was measured over 7 minutes. After aggregation with collagen and ADP was confirmed, only those samples in which the maximum aggregation with collagen was at least 70% were subjected to the experiment.
# The sample was dissolved in physiological saline to give a concentration of 2.2 x 10 ^-2 M and a 2-fold dilution series was prepared for use in the experiments. The samples insoluble in the physiological saline were dissolved in physiological saline containing 10% DMSO (dimethyl sulfoxide).
# The results were calculated as follows: [formula]
# A graph was constructed by plotting the percent aggregation inhibition against the sample concentration and the concentration at which the aggregation was inhibited by 50% (IC50) was calculated from the graph.
row,SMILES,IC50 [nM]
1,"CC(C(=O)N1CCC(CC(=O)O)CC1)C(NC(=O)c1ccc(C(=N)N)cc1)c1ccccc1 (stereo not drawn) [Comparative Example 10, N-(N-4-amidinobenzoyl-β-phenyl-α-methyl-β-alanyl)-4-piperidineacetic acid, reference compound]",16000
2,"CCCCc1ccc(C(NC(=O)c2ccc(C(=N)N)cc2)C(C)(C)C(=O)N2CCC(CC(=O)O)CC2)cc1 (stereo not drawn) [Example 32, N-(N-4-amidinobenzoyl-β-p-n-butylphenyl-α, α-dimethyl-β-alanyl)-4-piperidineacetic acid]",150
3,"CCCCC(NC(=O)c1ccc(C(=N)N)cc1)C1(C(=O)N2CCC(CC(=O)O)CC2)CCCCC1 (stereo not drawn) [Example 30, N-(((N-4-amidinobenzoyl)-1-amino)-1-pentyl-1-cyclohexane-carbonyl)-4-piperidineacetic acid]",160
4,"CC(C)CC(NC(=O)c1ccc(C(=N)N)cc1)C(C)(C)C(=O)N1CCC(CC(=O)O)CC1 (stereo not drawn) [Example 24, N-(N-4-amidinobenzoyl-β-i-butyl-α,α-dimethyl-β-alanyl)-4-piperidineacetic acid]",80
5,"COc1ccc(C(NC(=O)c2ccc(C(=N)N)cc2)C(C)(C)C(=O)N2CCC(CC(=O)O)CC2)cc1 (stereo not drawn) [Example 8, N-(N-4-amidinobenzoyl-β-p-methoxyphenyl-α, α-dimethyl-β-alanyl)-4-piperidineacetic acid]",250
6,"CC(C)C(NC(=O)c1ccc(C(=N)N)cc1)C(C)(C)C(=O)N1CCC(CC(=O)O)CC1 (stereo not drawn) [Example 5, N-(N-4-amidinobenzoyl-β-isopropyl-α,α-dimethyl-β-alanyl)-4-piperidineacetic acid]",190
7,"CC(C)C(C(=O)N1CCC(CC(=O)O)CC1)C(/C=C/c1ccccc1)NC(=O)c1ccc(C(=N)N)cc1 (stereo not drawn) [Comparative Example 9, N-(N-4-amidinobenzoyl-β-trans-styryl-α-isopropyl-β-alanyl)-4-piperidineacetic acid, reference compound]",90000
8,"CCCC(NC(=O)c1ccc(C(=N)N)cc1)C(C)(C)C(=O)N1CCC(CC(=O)O)CC1 (stereo not drawn) [Example 4, N-(N-4-amidinobenzoyl-β-n-propyl-α,α-dimethyl-β-alanyl)-4-piperidineacetic acid]",89
9,"CC(C)(C(=O)N1CCC(CC(=O)O)CC1)C(NC(=O)c1ccc(C(=N)N)cc1)c1ccc(F)cc1 (stereo not drawn) [Example 10, N-(N-4-amidinobenzoyl-β-p-fluorophenyl-α, α-dimethyl-β-alanyl)-4-piperidineacetic acid]",230
10,"CC(C)(C(=O)N1CCC(CC(=O)O)CC1)C(NC(=O)c1ccc(C(=N)N)cc1)c1ccccc1 (stereo not drawn) [Example 2, N-(N-4-amidinobenzoyl-β-phenyl-α,α-dimethyl-β-alanyl)-4-piperidineacetic acid]",190
11,"CC(C)(C(=O)N1CCC(CC(=O)O)CC1)C(NC(=O)c1ccc(C(=N)N)cc1)C1CCNCC1 (stereo not drawn) [Example 15, N-(N-4-amidinobenzoyl-β-(4-piperidyl)-α, α-dimethyl-β-alanyl)-4-piperidineacetic acid]",180
12,"CCC(NC(=O)c1ccc(C(=N)N)cc1)C(C)(C)C(=O)N1CCC(CC(=O)O)CC1 (stereo not drawn) [Example 3, N-(N-4-Amidinobenzoyl-β-ethyl-α,α-dimethyl-β-alanyl)-4-piperidineacetic acid]",84
